# Data as given in publication PMC4961418, “A Selective Irreversible Inhibitor of Furin Does Not Prevent Pseudomonas Aeruginosa Exotoxin A-Induced Airway Epithelial Cytotoxicity” (PLoS ONE, 2016).
# Peptide text beside a SMILES is read from it. * marks the point of attachment. Decanoyl = CCCCCCCCCC(=O)*; CH2Cl = ClC*
# Molecular target: cathepsin B (Homo sapiens, UniProt P07858)
# Experiment: Cathepsin B activity assay
# Assay type: biochemical
# Conditions: cathepsin B, N = 3
# Procedure: Fig 3 Comparison of QUB-F1 and furin I versus cathepsin B. Cathepsin B activity was assessed in the presence or absence of various concentrations of QUB-F1 or furin I (N = 3). Data represent mean ± s.e.m.
compound,measurement,value
"CCCCCCCCCC(=O)N[C@@H](CCCNC(=N)N)C(=O)N[C@H](C(=O)N[C@@H](CCCCN)C(=O)N[C@@H](CCCNC(=N)N)C(=O)CCl)C(C)C [furin I, Decanoyl-RVKR-chloromethylketone (CMK), reference compound] (Decanoyl-RVKR-CH2Cl)",IC50,56 nM
